Results from ChEMBL document CHEMBL1125661, “2-Alkoxyadenosines: potent and selective agonists at the coronary artery A2 adenosine receptor” (J Med Chem, 1991).

Assays:
Adenosine A2 receptor [1] = target: T1, Adenosine A2 receptor (Homo sapiens, UniProt P29275+P29274)
Description: Coronary arteries vasodilation at the Adenosine A2 receptor in langendorff guinea pig heart preparation

Adenosine receptor A1 [2] = target: T2, Adenosine receptor A1 (Cavia porcellus, UniProt P47745); test: Prolongation of the stimulus-QRS interval by 50% of the maximum response at the Adenosine A1 receptor in langendorff guinea pig heart preparation; assay type: functional
T2 sequence (P47745 whole entry): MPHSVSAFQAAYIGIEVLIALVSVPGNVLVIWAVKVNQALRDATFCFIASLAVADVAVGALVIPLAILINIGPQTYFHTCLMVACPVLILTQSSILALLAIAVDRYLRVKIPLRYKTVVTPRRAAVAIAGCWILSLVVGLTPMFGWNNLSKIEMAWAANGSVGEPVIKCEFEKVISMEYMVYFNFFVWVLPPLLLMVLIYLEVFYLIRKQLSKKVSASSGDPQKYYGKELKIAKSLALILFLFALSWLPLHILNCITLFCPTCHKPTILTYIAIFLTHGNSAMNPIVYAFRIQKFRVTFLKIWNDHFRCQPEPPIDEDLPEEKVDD

Adenosine A2 receptor [3] = target: T1, Adenosine A2 receptor; remark: listed apart in the source
Description: Coronary arteries vasodilation at the adenosine A2 receptor in langendorff guinea pig heart preparation

Adenosine receptor A1 [4] = target: T2, Adenosine receptor A1
Description: Prolongation of the stimulus-QRS interval by 50% of the maximum response at the adenosine A1 receptor in langendorff guinea pig heart preparation

SMILES | -Log EC50 (Adenosine A2 receptor [1]) | EC50 (Adenosine receptor A1 [2]) [µM] | -Log EC50 (Adenosine A2 receptor [3]) | EC50 (Adenosine receptor A1 [4]) [µM]
CC(C)CCOc1nc(N)c2ncn(C3O[C@@H](CO)[C@H](O)[C@@H]3O)c2n1 (stereo partly specified) | 7.61 | 66.1 |  | 
Nc1nc(OC2CCCC2)nc2c1ncn2[C@H]1O[C@@H](CO)[C@H](O)[C@@H]1O | 7.04 | 79.4 |  | 
CC(C)Oc1nc(N)c2ncn(C3O[C@@H](CO)[C@H](O)[C@@H]3O)c2n1 (stereo partly specified) | 5.86 | 224 |  | 
Nc1nc(OCCC(=O)[C@H]2CC3CCC2C3)nc2c1ncn2C1O[C@@H](CO)[C@H](O)[C@@H]1O (stereo partly specified) |  |  | 8.35 | 8.71
Nc1nc(OCCCC2CCCCC2)nc2c1ncn2C1O[C@@H](CO)[C@H](O)[C@@H]1O (stereo partly specified) |  |  | 8.67 | 3.72
CCC(CC)CCOc1nc(N)c2ncn(C3O[C@@H](CO)[C@H](O)[C@@H]3O)c2n1 (stereo partly specified) | 7.8 | 15.8 |  | 
Nc1nc(OCCO)nc2c1ncn2C1O[C@@H](CO)[C@H](O)[C@@H]1O (stereo partly specified) | 7.18 | 2.19 |  | 
Nc1nc(OCCCCC2CCCCC2)nc2c1ncn2C1O[C@@H](CO)[C@H](O)[C@@H]1O (stereo partly specified) | 8.71 | 2.63 |  | 
CC(C)N(c1ccccc1)c1ncnc2c1ncn2C1O[C@H](CO)[C@@H](O)[C@H]1O (stereo partly specified) | 7.88 | 0.0339 |  | 
CCCCCCOc1nc(N)c2ncn(C3O[C@@H](CO)[C@H](O)[C@@H]3O)c2n1 (stereo partly specified) | 8.42 | 13.8 |  | 
CC(C)CCCOc1nc(N)c2ncn(C3O[C@@H](CO)[C@H](O)[C@@H]3O)c2n1 (stereo partly specified) | 8.45 | 22.9 |  | 
CCNC(=O)[C@H]1O[C@@H](n2cnc3c(N)nc(NCCc4ccc(CCC(=O)O)cc4)nc32)[C@H](O)[C@@H]1O [CGS-21680] |  | 24.5 |  | 
CCOc1nc(N)c2ncn(C3O[C@@H](CO)[C@H](O)[C@@H]3O)c2n1 (stereo partly specified) | 6.44 | 79.4 |  | 
COc1cc(OC)cc(C(CNc2ncnc3c2ncn3[C@@H]2O[C@H](CO)[C@@H](O)[C@H]2O)c2ccccc2C)c1 (stereo partly specified) |  |  | 9.35 | 5.62
CCC(C)Oc1nc(N)c2ncn(C3O[C@@H](CO)[C@H](O)[C@@H]3O)c2n1 (stereo partly specified) | 5.45 | 891 |  | 
Nc1nc(Nc2ccccc2)nc2c1ncn2[C@@H]1O[C@H](CO)[C@@H](O)[C@H]1O |  |  | 7.74 | 12.6

SMILES | -Log EC50 (Adenosine A2 receptor [1]) | EC50 (Adenosine receptor A1 [2]) [µM] | -Log EC50 (Adenosine A2 receptor [3]) | EC50 (Adenosine receptor A1 [4]) [µM]
COc1nc(N)c2ncn([C@H]3O[C@@H](CO)[C@H](O)[C@@H]3O)c2n1 |  |  | 6.16 | 9.33
CC(C)COc1nc(N)c2ncn(C3O[C@@H](CO)[C@H](O)[C@@H]3O)c2n1 (stereo partly specified) | 7.15 | 107 |  | 
Nc1nc(OCC2CCCCC2)nc2c1ncn2C1O[C@@H](CO)[C@H](O)[C@@H]1O (stereo partly specified) |  |  | 6.75 | 50.1
Nc1nc(OCCC2CCCC2)nc2c1ncn2C1O[C@@H](CO)[C@H](O)[C@@H]1O (stereo partly specified) |  |  | 8.41 | 14.1
Nc1nc(OCCC2CCCCC2)nc2c1ncn2C1O[C@@H](CO)[C@H](O)[C@@H]1O (stereo partly specified) |  |  | 8.99 | 8.71
Nc1nc(=O)[nH]c2c1ncn2[C@@H]1O[C@H](CO)[C@@H](O)[C@H]1O [ISOGUANOSINE] | 7.1 | 1.15 |  | 
CCCOc1nc(N)c2ncn(C3O[C@@H](CO)[C@H](O)[C@@H]3O)c2n1 (stereo partly specified) | 7.28 | 148 |  | 
Nc1nc(Cl)nc2c1ncn2[C@@H]1O[C@H](CO)[C@@H](O)[C@H]1O |  |  | 7.6 | 0.191
CC#CCCOc1nc(N)c2ncn(C3O[C@@H](CO)[C@H](O)[C@@H]3O)c2n1 (stereo partly specified) | 7.56 | 63.1 |  | 
O=C(Nc1ncnc2c1ncn2[C@@H]1O[C@H](CO)[C@@H](O)[C@H]1O)[C@H]1C[C@H]2CC[C@@H]1C2 | 7.08 | 0.00537 |  | 
CCC(CC)COc1nc(N)c2ncn(C3O[C@@H](CO)[C@H](O)[C@@H]3O)c2n1 (stereo partly specified) | 6.54 | 35.5 |  | 
Nc1nc(OC2CCCCC2)nc2c1ncn2C1O[C@@H](CO)[C@H](O)[C@@H]1O (stereo partly specified) | 6.18 | 100 |  | 
CCCCCOc1nc(N)c2ncn(C3O[C@@H](CO)[C@H](O)[C@@H]3O)c2n1 (stereo partly specified) | 7.94 | 45.7 |  | 
CCCCOc1nc(N)c2ncn(C3O[C@@H](CO)[C@H](O)[C@@H]3O)c2n1 (stereo partly specified) | 7.28 | 37.2 |  | 
CC1(C)C2CCC(C(=O)CCOc3nc(N)c4ncn(C5O[C@@H](CO)[C@H](O)[C@@H]5O)c4n3)C1C2 (stereo partly specified) | 8.24 | 4.47 |  | 
